According to patent US6495693B2, “N-(aryl/heteroaryl) amino acid derivatives, pharmaceutical compositions comprising same, and methods for inhibiting β-amyloid peptide release and/or its synthesis by use of such compounds” (Athena Neurosciences, Inc., priority 1996, dated 2002):

With `CC(Nc1ccc(Cl)c(Cl)c1)C(=O)NC(=O)[C@@H](N)C(C)C` (mixture of isomers) [Example 6, N-[N-(3,4dichlorophenyl)-D,L-alanyl]-L-valine amide] the melting point was 156 to 158 °C.
Work on `CC(Nc1ccc(Cl)c(Cl)c1)C(=O)N[C@H](C(=O)N(C)C)C(C)C` (mixture of isomers) [Example 8, N-[N-(3,4-dichlorophenyl)-D,L-alanyl]-L-valine N,N-dimethyl amide] yielded a melting point of 145 to 160 °C.
`COC(=O)[C@H](Cc1c[nH]c2ccccc12)NC(=O)C(C)Nc1ccc(Cl)c(Cl)c1` (mixture of isomers) [Example 16, N-[N-(3,4dichlorophenyl)-D,L-alanyl]-L-tryptophan methyl ester] gave a melting point of 54 to 66 °C.
Work on `COC(=O)[C@H](CC(=O)O)NC(=O)C(C)Nc1ccc(Cl)c(Cl)c1` (mixture of isomers) [Example 18, N-[N-(3,4dichlorophenyl)-D,L-alanyl]-L-aspartic acid methyl ester] yielded a melting point of 53.5 to 56 °C.
Work on `CC(Nc1ccc(Cl)c(Cl)c1)C(=O)NC(=O)[C@@H](N)Cc1ccccc1` (mixture of isomers) [Example 36, N-[N-(3,4dichlorophenyl)-D,L-alanyl]-L-phenylalanine amide] yielded a melting point of 177 to 179 °C.
`COC(=O)[C@H](Cc1c[nH]cn1)NC(=O)C(C)Nc1ccc(Cl)c(Cl)c1` (mixture of isomers) [Example 46, N-[N-(3,4-dichlorophenyl)-D,L-alanyl]-L-histidine methyl ester] gave a melting point of 55 to 60 °C.
In the case of `COC(=O)[C@H](C)NC(=O)C(C)Nc1cc(F)cc(F)c1` (mixture of isomers) [Example 49, N-[N-(3,5-difluorophenyl)-D,L-alanyl]-L-alanine methyl ester], the melting point is reported as 93 to 95 °C.
Work on `CCCC[C@H](NC(=O)C(C)Nc1cc(F)cc(F)c1)C(=O)OC` (mixture of isomers) [Example 50, N-[N-(3,5-difluorophenyl)-D,L-alanyl]-(S)-2-aminohexanoic acid methyl ester] yielded a melting point of 93 to 95 °C.
`COC(=O)[C@H](CC(C)C)NC(=O)[C@H](C)Nc1ccc(Cl)c(Cl)c1` [Example 11, N-[N-(3,4dichlorophenyl)-L-alanyl]-L-leucine methyl ester] gave a melting point of 120 to 132 °C.
In the case of `COC(=O)[C@H](Cc1ccccc1)NC(=O)[C@H](C)Nc1ccc(Cl)c(Cl)c1` [Example 12, N-[N-(3,4-dichlorophenyl)-L-alanyl]-L-phenylalanine methyl ester], the melting point is reported as 122 to 124.5 °C.
`CCCC[C@H](NC(=O)[C@H](C)Nc1ccc(Cl)c(Cl)c1)C(=O)OC` [Example 15, N-[N-(3,4dichlorophenyl)-L-alanyl]-(S)-2-aminohexanoic acid methyl ester] gave a melting point of 163 to 165 °C.
With `CCCC[C@H](N)C(=O)NC(=O)[C@H](C)Nc1ccc(Cl)c(Cl)c1` [Example 40, N-[N-(3,4-dichlorophenyl)-L-alanyl]-(S)-2-aminohexanamide] the melting point was 156 to 161 °C.
Compound `CCCC[C@H](NC(=O)[C@H](C)Nc1nc2ccccc2s1)C(=O)OC` [Example 48, N-[N-(benzothiazol-2-yl)-L-alanyl]-(S)-2-aminohexanoic acid methyl ester] has a melting point of 99 to 120 °C.
Work on `CCCC[C@H](N)C(=O)NC(=O)[C@H](C)Nc1ccc(Cl)c(Cl)c1` [Example 51, N-[N-(3,4dichlorophenyl)-L-alanyl]-(S)-2-aminohexanamide] yielded a melting point of 184 to 186 °C.
